Earlier results, collected in patent publication US6126939A, “Anti-inflammatory dipeptide and pharmaceutical composition thereof” (Yeda Research and Development Co. Ltd., priority 1997, dated 2000).

Legend:
[1] = in vitro test assay
blood sugar levels = details: rats, i.p. 100 mg/kg
IL-1 = details: literature
macrophage migration = details: literature

Molecule | antilipolytic activity [1] | hypoglycemic activity (lowering of blood sugar levels) (blood sugar levels) | secretion of IL-1 macrophages (IL-1) | macrophage migration (macrophage migration)
Arg-Asn-NH2 | have antilipolytic activity | having hypoglycemic activity | – | –
Glu-Arg-NH2 | have antilipolytic activity | did not significantly lower blood sugar levels | – | –
Thr-Lys-Pro [TKP] | – | – | reduce secretion of IL-1 | inhibit macrophage migration
Arg-Asn | no significant antilipolytic activity | having hypoglycemic activity | – | –
COc1ccc2c(C(=S)N(C)CC(=O)O)cccc2c1C(F)(F)F [Tolrestat] | – | – | – | Another MIF
Gln-Arg-NH2 | have antilipolytic activity | having hypoglycemic activity | – | –
Gln-Arg-OMe | no significant antilipolytic activity | having hypoglycemic activity | – | –
Asn-Arg-NH2 | have antilipolytic activity | having hypoglycemic activity | – | –
Glu-Arg-OMe | have antilipolytic activity | having hypoglycemic activity | – | –
